Values quoted from earlier work, collected in patent US7579326B2, “Gene switch systems employing regulators with decreased dimerization” (Genetronics, Inc., priority 2000, dated 2009).

Assays:
[1] = rats
[2] = target: palindromic 17-mer GAL-4 DNA binding site

Compound	half-life [1] [h]	Kd [2] [nM]
CC#C[C@]1(O)CC[C@H]2[C@@H]3CCC4=CC(=O)CCC4=C3[C@@H](c3ccc(N(C)C)cc3)C[C@@]21C [MFP, 11β-(4-dimethylaminophenyl)-17β-hydroxy-17α-propynyl-4,9-estradiene-3-one]	1	
GAL-4, residues 1-100: yeast GAL-4 DNA binding domain fragment, residues 1-100		3
